The values that follow come from patent US7851467B2, “Carbamate compounds as 5-HT4 receptor agonists” (Theravance, Inc., priority 2005, dated 2010).

The target of the assay is T1, human 5-HT4(c) receptor (Homo sapiens, UniProt Q13639).
T1 construct: expressed in transfected cells; host or cells: HEK-293
Briefly: Whole-cell cAMP accumulation flashplate assay with HEK-293 cells expressing human 5-HT4(c) receptors. Format: cell-based. The following applies: cell line (1) having a density of about 0.5-0.6 μmol/mg protein, read-out: pEC50 value (converted). The method, then:
Assay 3: Whole-Cell cAMP Accumulation Flashplate Assay with HEK-293 Cells Expressing Human 5-HT4(c) Receptors
In this assay, the functional potency of a test compound was determined by measuring the amount of cyclic AMP produced when HEK-293 cells expressing 5-HT4 receptors were contacted with different concentrations of test compound.
HEK-293 (human embryonic kidney) cells stably-transfected with cloned human 5-HT4(c) receptor cDNA were prepared expressing the receptor at two different densities: (1) at a density of about 0.5-0.6 pmol/mg protein, as determined using a [^3H]-GR113808 membrane radioligand binding assay, and (2) at a density of about 6.0 pmol/mg protein. […]
Cells were grown to roughly 60-80% confluency. […] The cells were counted with a Coulter counter (count above 8 μm, flask yield was 1-2×10^7 cells/flask). […]
Cells were grown and prepared as described above. […] Bound radioactivity was quantified by scintillation proximity spectroscopy using the Topcount (Packard BioScience Co., Meriden, Conn.).
The amount of cAMP produced per mL of reaction was extrapolated from the cAMP standard curve, according to the instructions provided in the manufacturer's user manual. Data were analyzed by nonlinear regression analysis with the GraphPad Prism Software package using the 3-parameter sigmoidal dose-response model (slope constrained to unity). […]
(In general: cAMP levels reflect the balance of adenylyl cyclase and phosphodiesterase activity.)

The structures appear in SMILES notation.

T1 sequence (Q13639 1-380 isoform Q13639-4): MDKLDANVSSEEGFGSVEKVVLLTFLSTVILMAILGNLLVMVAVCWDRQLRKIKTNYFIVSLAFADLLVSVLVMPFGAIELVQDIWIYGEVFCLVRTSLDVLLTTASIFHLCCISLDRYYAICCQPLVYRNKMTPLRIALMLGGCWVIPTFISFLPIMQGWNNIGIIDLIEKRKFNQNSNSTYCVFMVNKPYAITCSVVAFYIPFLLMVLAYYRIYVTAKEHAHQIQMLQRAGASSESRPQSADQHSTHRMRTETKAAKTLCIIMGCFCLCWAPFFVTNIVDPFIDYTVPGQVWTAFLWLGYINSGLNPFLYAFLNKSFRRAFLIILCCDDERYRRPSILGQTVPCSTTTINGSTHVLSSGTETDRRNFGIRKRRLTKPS

Take `CC(C)n1c(=O)n(C(=O)N[C@H]2C[C@H]3CC[C@@H](C2)N3CCCOC(=O)N2CCN(C(=O)C3CCCO3)CC2)c2ccccc21` (stereo partly drawn) [Example 1, 4-(tetrahydrofuran-2-carbonyl)piperazine-1-carboxylic acid 3-{(1S,3R,5R)-3-[(3-isopropyl-2-oxo-2,3-dihydrobenzoimidazole-1-carbonyl)amino]-8-aza-bicyclo[3.2.1]oct-8-yl}propyl ester]: the EC50 was 3.98 nM.
